We go through one compound from EPA's ToxValDB 9.5 (doi:10.2903/j.efsa.2010.1565).

The subject of one data set is Typhlodromus pyri. Conditions: not reported; other.
The test system of a further data set is Daphnia magna. Conditions: chronic/long-term; duration: 21 days; reproduction.
Another data set deals with Canidae. Particulars: chronic; duration: 1 years; oral; Dog Other; organ weight.
Another data set concerns Colinus virginianus. Conditions: acute; oral; mortality.
The subject of the next data set is Rattus norvegicus. Particulars: oral.

Values after ≈ are worked out from the molar mass of the structure shown.

In turn, `CCN(CC)C(=O)C(C)Oc1cccc2ccccc12` (configuration not stated) [Napropamide] gave an LEL with Typhlodromus pyri of 4500 g/ha. Also, the LC50 is 564 mg/kg in the data set with Tagia sp. (acute, duration: 14 days, mortality); greater than 1570 mg/kg-day in the data set with Anas platyrhynchos (short-term, oral, feed, mortality); 6.6 µg/mL (≈ 24.3 µM) in the data set on Oncorhynchus mykiss (acute, duration: 96 hours, mortality). The NOEC came to 60 mg/kg with Tagia sp. (chronic/long-term, reproduction); 4.3 mg/L with Daphnia magna; 1.1 mg/L with Oncorhynchus mykiss (chronic/long-term, duration: 28 days, growth). In addition, the NOAEL (usually the highest dose or exposure tested at which no adverse effect was seen) with Canidae was 50 mg/kg-day; in the data set with Rattus norvegicus (chronic, duration: 2 years, body weight), 30 mg/kg-day. In the data set with Anas platyrhynchos (reproductive, reproduction), this compound returned an NOEL of 309 mg/kg-day. The 50% lethal dose (LD50) (in general, the dose expected to kill half of the subjects tested) in the data set with Colinus virginianus is greater than 2250 mg/kg; with Rattus norvegicus (acute, mortality) it was 4680 mg/kg.
